{"source": "patent US20150197433A1", "about": "“Compositions and methods for treating toilets” (Integrated Chemical Technologies, Inc., priority 2014, published 2015)", "system": "urease enzyme", "assay": "Testing Glycine Hydroxamate: ammonia odor of treated water loaded with urine and fecal matter", "details": "for odor of ammonia: 0.04 grams in 200 ml water with bronopol, citric acid, sodium bicarbonate, sulfamic acid, fragrance, approximately 80° F., after 7 days", "protocol": "To each of two flask, 200 ml of distilled water was combined with 0.04 grams of bronopol, 0.04 grams of either acetylhydroxamic acid or 0.04 grams of glycine hydroxamate, 0.10 grams of citric acid, 0.023 grams sodium bicarbonate, 0.027 grams of sulfamic acid, and 0.04 grams of mulberry fragrance. To each sample, 9 ml of urine and 1.5 grams of fecal matter was added and swirled."}
{"smiles": "CC(=O)NO", "note": "[acetylhydroxamic acid, reference compound]", "values": [{"measurement": "odor of ammonia", "value": "no detectable odor of ammonia"}]}
{"smiles": "NCC(=O)NO", "note": "[glycine hydroxamate]", "values": [{"measurement": "odor of ammonia", "value": "no detectable odor of ammonia"}, {"measurement": "performance compared with acetylhydroxamic acid", "setting": "under test conditions", "value": "comparable to acetylhydroxamic acid"}]}
